# Measurements published in patent US6525001B1, “Substituted pyrimidine and pyridine herbicides” (Mid-American Commercialization Corporation, priority 1997, dated 2003).
# Key:
# Test in all cases: Test B pre-/postemergence
# Format in all cases: in vivo
# Set-up in all cases: key: 0 is no effect; 10 is complete control
# [1] = tested on: bedstraw (Galium aparine)
# How it was run: (§1)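 Seeds were planted and sprayed preemergence, while plants at 2 to 18 cm (1- to 4-leaf stage) were sprayed postemergence at the same time, with test chemical in a non-phytotoxic solvent mixture containing surfactant. After twelve to sixteen days in a greenhouse, injury was rated visually against untreated controls on a 0–10 scale.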
# [2] = tested on: cocklebur (Xanthium strumarium)
# How it was run: as §1
# corn (Zea mays) = tested on: corn (Zea mays)
# How it was run: as §1
# [3] = tested on: crabgrass (Digitaria sanguinalis)
# How it was run: as §1
# [4] = tested on: giant foxtail (Setaria faberii)
# How it was run: as §1
# [5] = tested on: momingglory (Ipomoea hederacea)
# How it was run: as §1
# [6] = tested on: pigweed (Amaranthus retroflexus)
# How it was run: as §1
# [7] = tested on: purple nutsedge (Cyperus rotundus)
# How it was run: as §1
# rape (Brassica napus) = tested on: rape (Brassica napus)
# How it was run: as §1
# soybean (Glycine max) = tested on: soybean (Glycine max)
# How it was run: as §1
# [8] = tested on: sugar beet (Beta vulgaris)
# How it was run: as §1
# [9] = tested on: velvetleaf (Abutilon theophrasti)
# How it was run: as §1
# [10] = tested on: wheat (Triticum aestivum)
# How it was run: as §1
# wild oat (Avena fatua) = tested on: wild oat (Avena fatua)
# How it was run: as §1
# [11] = Preemergence, Rate 62 g/ha, scale of 0 to 10
smiles,measurement,setting,value
Cc1cnc(-n2ccc(C(F)(F)F)n2)nc1C(=O)c1cccc(C(F)(F)F)c1 [Compound 59],"Plant response rating, Bedstraw",[1]; [11],3
same,Bedstraw plant response rating,"[1]; Rate 62 g/ha, Postemergence",7
same,Bedstraw plant response rating,"[1]; Rate 125 g/ha, Postemergence",7
same,"Plant response rating, Bedstraw","[1]; Rate 125 g/ha, Preemergence",6
same,"Plant response rating, Bedstraw","[1]; Rate 250 g/ha, Postemergence",8
same,"Plant response rating, Bedstraw","[1]; Rate 250 g/ha, Preemergence",6
same,"Plant response rating, Bedstraw","[1]; Rate 500 g/ha, Postemergence",9
same,"Plant response rating, Bedstraw","[1]; Rate 500 g/ha, Preemergence",8
same,"Plant response rating, Cocklebur",[2]; [11],0
same,Cocklebur plant response rating,"[2]; Rate 62 g/ha, Postemergence",4
same,Cocklebur plant response rating,"[2]; Rate 125 g/ha, Postemergence",7
same,"Plant response rating, Cocklebur","[2]; Rate 125 g/ha, Preemergence",2
same,"Plant response rating, Cocklebur","[2]; Rate 250 g/ha, Postemergence",7
same,"Plant response rating, Cocklebur","[2]; Rate 500 g/ha, Postemergence",8
same,"Plant response rating, Cocklebur","[2]; Rate 500 g/ha, Preemergence",2
same,"Plant response rating, Corn",corn (Zea mays); [11],0
same,Corn plant response rating,"corn (Zea mays); Rate 62 g/ha, Postemergence",1
same,Corn plant response rating,"corn (Zea mays); Rate 125 g/ha, Postemergence",2
same,"Plant response rating, Corn","corn (Zea mays); Rate 125 g/ha, Preemergence",1
same,"Plant response rating, Corn","corn (Zea mays); Rate 250 g/ha, Postemergence",3
same,"Plant response rating, Corn","corn (Zea mays); Rate 250 g/ha, Preemergence",1
same,"Plant response rating, Corn","corn (Zea mays); Rate 500 g/ha, Postemergence",4
same,"Plant response rating, Corn","corn (Zea mays); Rate 500 g/ha, Preemergence",3
same,"Plant response rating, Crabgrass",[3]; [11],8
same,Crabgrass plant response rating,"[3]; Rate 62 g/ha, Postemergence",6
same,Crabgrass plant response rating,"[3]; Rate 125 g/ha, Postemergence",6
same,"Plant response rating, Crabgrass","[3]; Rate 125 g/ha, Preemergence",9
same,"Plant response rating, Crabgrass","[3]; Rate 250 g/ha, Postemergence",8
same,"Plant response rating, Crabgrass","[3]; Rate 250 g/ha, Preemergence",10
same,"Plant response rating, Crabgrass","[3]; Rate 500 g/ha, Postemergence",9
same,"Plant response rating, Crabgrass","[3]; Rate 500 g/ha, Preemergence",10
same,"Plant response rating, Giant foxtail",[4]; [11],8
same,Giant foxtail plant response rating,"[4]; Rate 62 g/ha, Postemergence",6
same,Giant foxtail plant response rating,"[4]; Rate 125 g/ha, Postemergence",6
same,"Plant response rating, Giant foxtail","[4]; Rate 125 g/ha, Preemergence",10
same,"Plant response rating, Giant foxtail","[4]; Rate 250 g/ha, Postemergence",8
same,"Plant response rating, Giant foxtail","[4]; Rate 250 g/ha, Preemergence",10
same,"Plant response rating, Giant foxtail","[4]; Rate 500 g/ha, Postemergence",9
same,"Plant response rating, Giant foxtail","[4]; Rate 500 g/ha, Preemergence",10
same,"Plant response rating, Morningglory",[5]; [11],6
same,Morningglory plant response rating,"[5]; Rate 62 g/ha, Postemergence",7
same,"Plant response rating, Morningglory","[5]; Rate 125 g/ha, Preemergence",6
same,"Plant response rating, Morningglory","[5]; Rate 250 g/ha, Postemergence",10
same,"Plant response rating, Morningglory","[5]; Rate 250 g/ha, Preemergence",10
same,"Plant response rating, Morningglory","[5]; Rate 500 g/ha, Postemergence",10
same,"Plant response rating, Morningglory","[5]; Rate 500 g/ha, Preemergence",10
same,"Plant response rating, Redroot pigweed",[6]; [11],8
same,Redroot pigweed plant response rating,"[6]; Rate 62 g/ha, Postemergence",8
same,Redroot pigweed plant response rating,"[6]; Rate 125 g/ha, Postemergence",8
same,"Plant response rating, Redroot pigweed","[6]; Rate 125 g/ha, Preemergence",10
same,"Plant response rating, Redroot pigweed","[6]; Rate 250 g/ha, Postemergence",8
same,"Plant response rating, Redroot pigweed","[6]; Rate 250 g/ha, Preemergence",10
same,"Plant response rating, Redroot pigweed","[6]; Rate 500 g/ha, Postemergence",9
same,"Plant response rating, Redroot pigweed","[6]; Rate 500 g/ha, Preemergence",10
same,"Plant response rating, Nutsedge",[7]; [11],0
same,Nutsedge plant response rating,"[7]; Rate 62 g/ha, Postemergence",0
same,Nutsedge plant response rating,"[7]; Rate 125 g/ha, Postemergence",0
same,"Plant response rating, Nutsedge","[7]; Rate 125 g/ha, Preemergence",0
same,"Plant response rating, Nutsedge","[7]; Rate 250 g/ha, Postemergence",0
same,"Plant response rating, Nutsedge","[7]; Rate 250 g/ha, Preemergence",0
same,"Plant response rating, Nutsedge","[7]; Rate 500 g/ha, Postemergence",0
same,"Plant response rating, Nutsedge","[7]; Rate 500 g/ha, Preemergence",0
same,"Plant response rating, Rape",rape (Brassica napus); [11],5
same,Rape plant response rating,"rape (Brassica napus); Rate 62 g/ha, Postemergence",6
same,Rape plant response rating,"rape (Brassica napus); Rate 125 g/ha, Postemergence",7
same,"Plant response rating, Rape","rape (Brassica napus); Rate 125 g/ha, Preemergence",7
same,"Plant response rating, Rape","rape (Brassica napus); Rate 250 g/ha, Postemergence",7
same,"Plant response rating, Rape","rape (Brassica napus); Rate 250 g/ha, Preemergence",7
same,"Plant response rating, Rape","rape (Brassica napus); Rate 500 g/ha, Postemergence",7
same,"Plant response rating, Rape","rape (Brassica napus); Rate 500 g/ha, Preemergence",10
same,"Plant response rating, Soybean",soybean (Glycine max); [11],1
same,Soybean plant response rating,"soybean (Glycine max); Rate 62 g/ha, Postemergence",6
same,Soybean plant response rating,"soybean (Glycine max); Rate 125 g/ha, Postemergence",7
same,"Plant response rating, Soybean","soybean (Glycine max); Rate 125 g/ha, Preemergence",2
same,"Plant response rating, Soybean","soybean (Glycine max); Rate 250 g/ha, Postemergence",8
same,"Plant response rating, Soybean","soybean (Glycine max); Rate 250 g/ha, Preemergence",2
same,"Plant response rating, Soybean","soybean (Glycine max); Rate 500 g/ha, Postemergence",9
same,"Plant response rating, Soybean","soybean (Glycine max); Rate 500 g/ha, Preemergence",4
same,"Plant response rating, Sugarbeets",[8]; [11],10
same,Sugarbeets plant response rating,"[8]; Rate 62 g/ha, Postemergence",9
same,Sugarbeets plant response rating,"[8]; Rate 125 g/ha, Postemergence",9
same,"Plant response rating, Sugarbeets","[8]; Rate 125 g/ha, Preemergence",10
same,"Plant response rating, Sugarbeets","[8]; Rate 250 g/ha, Postemergence",9
same,"Plant response rating, Sugarbeets","[8]; Rate 250 g/ha, Preemergence",10
same,"Plant response rating, Sugarbeets","[8]; Rate 500 g/ha, Postemergence",9
same,"Plant response rating, Sugarbeets","[8]; Rate 500 g/ha, Preemergence",10
same,"Plant response rating, Velvetleaf",[9]; [11],7
same,Velvetleaf plant response rating,"[9]; Rate 62 g/ha, Postemergence",6
same,Velvetleaf plant response rating,"[9]; Rate 125 g/ha, Postemergence",7
same,"Plant response rating, Velvetleaf","[9]; Rate 125 g/ha, Preemergence",7
same,"Plant response rating, Velvetleaf","[9]; Rate 250 g/ha, Postemergence",7
same,"Plant response rating, Velvetleaf","[9]; Rate 250 g/ha, Preemergence",9
same,"Plant response rating, Velvetleaf","[9]; Rate 500 g/ha, Postemergence",8
same,"Plant response rating, Velvetleaf","[9]; Rate 500 g/ha, Preemergence",10
same,"Plant response rating, Wheat",[10]; [11],1
same,Wheat plant response rating,"[10]; Rate 62 g/ha, Postemergence",1
same,Wheat plant response rating,"[10]; Rate 125 g/ha, Postemergence",2
same,"Plant response rating, Wheat","[10]; Rate 125 g/ha, Preemergence",2
same,"Plant response rating, Wheat","[10]; Rate 250 g/ha, Postemergence",2
same,"Plant response rating, Wheat","[10]; Rate 250 g/ha, Preemergence",3
same,"Plant response rating, Wheat","[10]; Rate 500 g/ha, Postemergence",3
same,"Plant response rating, Wheat","[10]; Rate 500 g/ha, Preemergence",5
same,"Plant response rating, Wild oats",wild oat (Avena fatua); [11],7
same,Wild oats plant response rating,"wild oat (Avena fatua); Rate 62 g/ha, Postemergence",1
same,Wild oats plant response rating,"wild oat (Avena fatua); Rate 125 g/ha, Postemergence",1
same,"Plant response rating, Wild oats","wild oat (Avena fatua); Rate 125 g/ha, Preemergence",8
same,"Plant response rating, Wild oats","wild oat (Avena fatua); Rate 250 g/ha, Postemergence",3
same,"Plant response rating, Wild oats","wild oat (Avena fatua); Rate 250 g/ha, Preemergence",9
same,"Plant response rating, Wild oats","wild oat (Avena fatua); Rate 500 g/ha, Postemergence",6
same,"Plant response rating, Wild oats","wild oat (Avena fatua); Rate 500 g/ha, Preemergence",9
